The source made the active and inactive calls. The rule behind the calls is not given here.
Legend:
Trypanosoma cruzi [1] = assay: (§1) Antitrypanosomal activity against Trypanosoma cruzi MHOM/Pe/2011/Arequipa DTU 5 trypomastigotes infected in Balb/c mouse assessed as parasite-free heart at 20 mg/kg, po pretreated once daily for 5 consecutive days starting from day 75 post infection followed by cyclophosphamide-induced immunosuppression on day 100 post infection every 4 days for a maximum of 3 doses measured on day 127 post infection by PCR method; type: functional, organism-based
[2] = (§2) Hepatotoxicity in Balb/c mouse infected with Trypanosoma cruzi MHOM/Pe/2011/Arequipa DTU 5 trypomastigotes assessed as decrease in alkaline phosphatase level at 20 mg/kg, po once daily for 5 consecutive days starting from day 10 post infection measured on day 127 post infection by biochemical analysis relative to control; type: toxicity, organism-based; set-up: scale not given: the % may be the effect or the level left; conditions: in vivo
Trypanosoma cruzi [3] = assay: as §1, with “oesophagus” for “heart”; type: functional, organism-based
Trypanosoma cruzi [4] = assay: as §1, with “lungs” for “heart”; type: functional, organism-based
Trypanosoma cruzi [5] = assay: as §1, with “stomach” for “heart”; type: functional, organism-based
[6] = (§3) Hepatotoxicity in Balb/c mouse infected with Trypanosoma cruzi MHOM/Pe/2011/Arequipa DTU 5 trypomastigotes assessed as change in total bilirubin level at 20 mg/kg, po once daily for 5 consecutive days starting from day 75 post infection measured on day 81 post infection (reference value: 0.25 mg/dl); type: toxicity, organism-based; conditions: in vivo
[7] = as §2, with “Cardiotoxicity” for “Hepatotoxicity”, “ratio of creatine kinase in muscle to brain” for “alkaline phosphatase level”, “16” for “127”; type: toxicity, organism-based; set-up: scale not given: the % may be the effect or the level left; conditions: in vivo
[8] = as §3, with “alkaline phosphatase” for “total bilirubin”, “167 U/L)” for “0.25 mg/dl)”; type: toxicity, organism-based; conditions: in vivo
[9] = Hepatotoxicity in Balb/c mouse infected with Trypanosoma cruzi MHOM/Pe/2011/Arequipa DTU 5 trypomastigotes assessed as change in total bilirubin level at 20 mg/kg, po once daily for 5 consecutive days starting from day 75 post infection measured on day 127 post infection (reference value: 0.2 mg/dl); type: toxicity, organism-based; conditions: in vivo
[10] = Hepatotoxicity in Balb/c mouse infected with Trypanosoma cruzi MHOM/Pe/2011/Arequipa DTU 5 trypomastigotes assessed as decrease in serum ALT to GPT level at 20 mg/kg, po once daily for 5 consecutive days starting from day 10 post infection measured on day 16 post infection relative to control; type: toxicity, organism-based; set-up: scale not given: the % may be the effect or the level left; conditions: in vivo
Trypanosoma cruzi [11] = assay: Inhibition of Trypanosoma cruzi MHOM/Pe/2011/Arequipa DTU 5 epimastigotes Fe-SOD at 100 uM by UV-Visible spectrophotometric method relative to control
[12] = (§4) Hepatotoxicity in Balb/c mouse infected with Trypanosoma cruzi MHOM/Pe/2011/Arequipa DTU 5 trypomastigotes assessed as increase in ratio of serum ALT to GPT level at 20 mg/kg, po once daily for 5 consecutive days starting from day 75 post infection measured on day 127 post infection relative to control; type: toxicity, organism-based; conditions: in vivo
[13] = Hepatotoxicity in Balb/c mouse infected with Trypanosoma cruzi MHOM/Pe/2011/Arequipa DTU 5 trypomastigotes assessed as decrease in ratio of serum AST to GOT level at 20 mg/kg, po once daily for 5 consecutive days starting from day 10 post infection measured on day 16 post infection relative to control; type: toxicity, organism-based; set-up: scale not given: the % may be the effect or the level left; conditions: in vivo
[14] = as §4, with “from day 10 post infection” for “from day 75 post infection”, “post infection by biochemical analysis relative to” for “post infection relative to”; type: toxicity, organism-based; conditions: in vivo
Trypanosoma cruzi [15] = assay: Antitrypanosomal activity against Trypanosoma cruzi MHOM/Pe/2011/Arequipa DTU 5 trypomastigotes infected in Balb/c mouse assessed as reduction in parasitaemia level at 20 mg/kg, po once daily for 5 consecutive days starting from day 10 post infection measured every 2 to 3 days up to day 50 post infection starting from day 7 post infection by Neubauer chamber method; type: functional, organism-based
[16] = as §3, with “Cardiotoxicity” for “Hepatotoxicity”, “ratio of creatine kinase in muscle to brain” for “total bilirubin level”, “751 U/L)” for “0.25 mg/dl)”; type: toxicity, organism-based; conditions: in vivo
[17] = Cardiotoxicity in Balb/c mouse infected with Trypanosoma cruzi MHOM/Pe/2011/Arequipa DTU 5 trypomastigotes assessed as change in serum LDH level at 20 mg/kg, po once daily for 5 consecutive days starting from day 75 post infection measured on day 127 post infection (reference value: 6679 U/L); type: toxicity, organism-based; conditions: in vivo
[18] = Cardiotoxicity in Balb/c mouse infected with Trypanosoma cruzi MHOM/Pe/2011/Arequipa DTU 5 trypomastigotes assessed as change in serum LDH level at 20 mg/kg, po once daily for 5 consecutive days starting from day 75 post infection measured on day 81 post infection (reference value: 5951 U/L); type: toxicity, organism-based; conditions: in vivo
[19] = Hepatotoxicity in Balb/c mouse infected with Trypanosoma cruzi MHOM/Pe/2011/Arequipa DTU 5 trypomastigotes assessed as increase in total bilirubin level at 20 mg/kg, po once daily for 5 consecutive days starting from day 75 post infection measured on day 127 post infection relative to control; type: toxicity, organism-based; conditions: in vivo
[20] = Hepatotoxicity in Balb/c mouse infected with Trypanosoma cruzi MHOM/Pe/2011/Arequipa DTU 5 trypomastigotes assessed as increase in ratio of serum AST to GOT level at 20 mg/kg, po once daily for 5 consecutive days starting from day 75 post infection measured on day 81 post infection by biochemical analysis relative to control; type: toxicity, organism-based; conditions: in vivo
[21] = Nephrotoxicity in Balb/c mouse infected with Trypanosoma cruzi MHOM/Pe/2011/Arequipa DTU 5 trypomastigotes assessed as decrease in serum urea level at 20 mg/kg, po once daily for 5 consecutive days starting from day 10 post infection measured on day 127 post infection relative to control; type: toxicity, organism-based; set-up: scale not given: the % may be the effect or the level left; conditions: in vivo
[22] = as §4, with “81” for “127”; type: toxicity, organism-based; conditions: in vivo

SMILES: Cl.Cl.Cl.NCCN(CCN)CCNCc1ccc2c(c1)Cc1ccccc1-2
- Activity (Trypanosoma cruzi [1]): Active
- Activity [2]: <= 10%
- Activity (Trypanosoma cruzi [3]): Active
- Activity (Trypanosoma cruzi [4]): Active
- Activity (Trypanosoma cruzi [5]): Active
- Activity [6]: 0.25 mg/dL
- Activity [7]: <= 10%
- Activity [8]: 167 U/L
- Activity [9]: 0.2 mg/dL
- Activity [10]: <= 10%

SMILES: Cl.Cl.Cl.Cl.Cl.Cl.c1ccc2nc(CNCCN(CCNCc3ccc4ccccc4n3)CCNCc3ccc4ccccc4n3)ccc2c1
- inhibition (Trypanosoma cruzi [11]): 100%
- Activity [12]: <= 10%
- Activity [13]: <= 10%
- Activity [14]: <= 30%
- Activity (Trypanosoma cruzi [15]): inactive
- Activity [16]: 751 U/L
- Activity [17]: 6679 U/L
- Activity [18]: 6679 U/L

SMILES: O=C(Cn1ccnc1[N+](=O)[O-])NCc1ccccc1 [BENZNIDAZOLE]
- Activity [19]: <= 20%
- Activity [20]: <= 20%
- Activity [21]: <= 10%
- Activity [22]: <= 20%

Reference: ChEMBL document CHEMBL4411300 (Eur J Med Chem, 2019)
